Laboratory results published in patent US11459330B2, “Substituted bicyclic heterocyclic compounds as PRMT5 inhibitors” (LUPIN LIMITED, priority 2017, dated 2022).

Legend:
PRMT5:MEP50 = PRMT5:MEP50 (Homo sapiens, UniProt O14744); assay: PRMT5 biochemical HTRF assay (Biochemical Assay Protocol 1 / 2); details: biotinylated H4R3 substrate, 1 μM SAM, protocol 1 or 2 not given, activity range 300 pM to 950 pM, read-out: IC50 (PRMT5 inhibition), activity range
Procedure: Biochemical Assay Protocol 1
(§1) Inhibitory effect of compounds on PRMT5 was assessed using HTRF detection technology in biochemical assay. Biotinylated H4R3 (residues 1-21) was used as a substrate. Compounds were pre-incubated with 15-25 ng PRMT5:MEP50 per well of a 384-well plate for 30 min at room temperature in the assay buffer containing 20 mM Bicine, pH 7.6, 25 mM NaCl, 2 mM DTT, 0.01% Chicken albumin and 0.01% Tween-20. Reaction was initiated by adding 1 μM of SAM and 50 nM biotinylated H4R3. Total assay volume was 15 μL. Reaction was continued for 120 min at room temperature. Then detection solution containing Streptavidin-Eu cryptate, anti-rabbit IgG-XL-665, Histone H4R3 Dimethyl Symmetric (H4R3me2s) Polyclonal Antibody, all prepared in HTRF detection buffer was added and further incubated for 30 min at room temperature. HTRF signal was recorded in PHERAStar microplate reader. Ratio of signal obtained at 665 nm and 620 nm was used to compute the percent inhibition of compound as follows % Inhibition=100−((Test Ratio−Negative control Ratio)/(Positive control Ratio−Negative control Ratio)*100) where Positive control=PRMT5+SAM+H4R3 Negative control=PRMT5+H4R3 Biochemical Assay Protocol 2
as §1, with “2.5” for “15-25”, “4 h” for “120 min”, “control=PRMT5+H4R3” for “control=PRMT5+H4R3 Biochemical Assay Protocol 2”

PANC-1 cells = assay: Anti-cancer assay (Panc-1), cell viability CellTiterGlo; format: cell-based; details: Homo sapiens, PANC-1, 168 h, 7 days, activity range, lower bound in pM, upper bound in nM
Procedure: Anticancer Activity Assay
Z-138 cells were seeded at a density of 2000-3000 cells per well in culture media (IMDM+10% FBS). PANC-1 (ATCC, CRL-1469™) and MIA PaCa-2 (ATCC, CRL-1420™) cells were seeded at a density of 200-300 cells per well in culture media (DMEM+10% FBS). Cells were seeded in opaque, flat bottomed tissue culture grade 96-well plates and Z-138 cells (suspension) were seeded and treated on the same day with various concentrations of test compounds. PANC-1 and MIA PaCa-2 cells, being adherent, were kept for overnight settlement at standard cell culture conditions (37° C., 5% CO2). On the following day, cells were treated with various concentrations of test compounds. Cells were treated with test compounds for a period of 96 h, 7 days and 10 days, for Z-138 cells, PANC-1 cells and MIA PaCa-2 cells, respectively. Cell viability was assessed using CellTiterGlo™ (Promega, USA) as per manufacturer's instructions. Relative Light Units (RLU) were read in Synergy™ 2 reader (Biotek, USA). The assay measures cellular ATP as an indicator of cell viability. RLU is proportional to the number of viable cells in the respective well.
% inhibition of cell viability was calculated relative to the vehicle control samples containing media with 0.1% DMSO alone as per the formula below. (Avg. of Untreated Control−Avg. of Test)×100 Avg. of Untreated Control
The IC50 values of individual compounds were calculated with Non Linear Regression Analysis using Graph Pad Prism (Graph Pad software, Inc, USA).
Anti-Cancer Assay (Panc-1)

Z-138 xenograft = assay: In vivo efficacy, Z-138 xenograft mouse model; parameters: species or system female NOD.CB17-Prkdc<scid>/J mice; details: mice, oral twice a day; for % of tumor growth inhibition: 1 mg/kg dose, after 38 days
Procedure: In Vivo Efficacy Experiments Tumor xenograft for mantle cell lymphoma was established by injection of cells into the right flank of female NOD.CB17-Prkdc/J mice with an age between 7-11 weeks purchased from The Jackson Laboratory, USA. All animal study proposals were reviewed and approved by the Institutional Animal Ethics Committee (IAEC) prior to initiation of experimentation. Z-138 Xenograft For Z-138 xenograft mouse model, Z-138 cells (ATCC® CRL-3001™) were grown in IMDM medium supplemented with 10% FBS. Cells were incubated under standard conditions at 37° C. and 5% CO2. For generating tumors, Z-138 cells in IMDM medium were mixed with Matrigel (Corning® Matrigel® Basement Membrane Matrix) in a ratio of 1:1. 10×10^6 cells) in a volume of 200 μL were injected subcutaneously in each mouse to establish tumors. Mice were randomized into treatment groups of 8-10 mice, once tumors reached an average volume between 100 to 120 mm^3. Treatment was initiated on day of randomization and continued until end of the study. The Vehicle and test compound treatment groups were administered respective treatments orally, using gavage tubing, at an application volume of 10 mL/kg per mouse twice a day. Mice were housed in individually ventilated cages (IVC) at room temperature of 22+3° C., humidity 50+20% and 12/12 h light/dark cycle. All the experimental activities were carried-out inside the biosafety cabinets to ensure sterility.
Tumor size was measured with Digimatic Vernier caliper (Mitutoyo, Japan) when the tumors became palpable. Tumor volume (T. V.) is calculated by using the formula: Tumor volume (mm3)=(L×W2)/2 Where, L: Length of tumor, W: Width of tumor in millimeter Percent tumor growth inhibition (% TGI) is calculated using the formula: % TGI=[1−(Tf−Ti)/(Cf−Ci)]×100 Where, Tf and Ti, are the final and initial tumor volumes (test compound), and Cf and Ci are the final and initial mean tumor volumes (vehicle group), respectively. Percent tumor regression is calculated as: % TR:(Ti−Tf)/(Ti)×100 Where, Tf and Ti, are the final and initial tumor volumes, respectively.

Chain of PRMT5:MEP50 (O14744 whole entry): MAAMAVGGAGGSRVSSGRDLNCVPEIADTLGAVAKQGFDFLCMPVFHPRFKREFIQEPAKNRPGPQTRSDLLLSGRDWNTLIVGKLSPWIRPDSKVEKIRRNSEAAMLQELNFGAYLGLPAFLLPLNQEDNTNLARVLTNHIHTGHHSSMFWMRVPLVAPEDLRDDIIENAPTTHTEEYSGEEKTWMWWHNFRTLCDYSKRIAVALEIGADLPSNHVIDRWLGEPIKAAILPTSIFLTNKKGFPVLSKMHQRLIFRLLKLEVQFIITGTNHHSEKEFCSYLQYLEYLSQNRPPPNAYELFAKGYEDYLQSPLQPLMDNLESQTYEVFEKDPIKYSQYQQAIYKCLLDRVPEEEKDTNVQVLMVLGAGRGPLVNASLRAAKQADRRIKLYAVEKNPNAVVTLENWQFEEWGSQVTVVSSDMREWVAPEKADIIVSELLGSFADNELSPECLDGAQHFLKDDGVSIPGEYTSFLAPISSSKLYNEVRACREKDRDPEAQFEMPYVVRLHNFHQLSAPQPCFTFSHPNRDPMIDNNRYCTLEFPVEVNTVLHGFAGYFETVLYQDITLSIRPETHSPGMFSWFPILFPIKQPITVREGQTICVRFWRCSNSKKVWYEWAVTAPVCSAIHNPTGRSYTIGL
Chain of PRMT5:MEP50 (Q9BQA1 whole entry partner): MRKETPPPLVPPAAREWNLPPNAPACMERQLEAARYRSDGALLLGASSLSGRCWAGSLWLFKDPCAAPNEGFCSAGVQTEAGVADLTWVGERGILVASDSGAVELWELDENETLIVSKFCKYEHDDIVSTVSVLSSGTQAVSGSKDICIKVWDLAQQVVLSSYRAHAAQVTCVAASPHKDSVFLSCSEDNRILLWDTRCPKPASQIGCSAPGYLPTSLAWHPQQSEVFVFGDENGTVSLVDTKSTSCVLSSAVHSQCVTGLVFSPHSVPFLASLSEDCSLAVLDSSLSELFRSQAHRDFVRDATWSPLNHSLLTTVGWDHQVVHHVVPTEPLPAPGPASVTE

Structure (SMILES)	IC50 (PRMT5:MEP50)	IC50 (PANC-1 cells)	% of tumor growth inhibition (Z-138 xenograft)	tumor growth inhibition (Z-138 xenograft; 5 mg/kg dose)	tumor regression (Z-138 xenograft; 5 mg/kg dose)
CC(Cc1cc(F)c2cc(Cl)c(N)nc2c1)C1=C[C@@H](n2ccc3c(N)ncnc32)[C@H](O)[C@@H]1O (single isomer, unassigned) [Compound-33b]	0.3 to 0.95 nM	300 to 20000 pM	100%	–	–
Cc1ncnc2c1ccn2[C@@H]1C=C(CCc2cc(F)c3cc(Cl)c(N)nc3c2)[C@@H](O)[C@H]1O [Compound-13, (1S,2R,5R)-3-(2-(2-amino-3-chloro-5-fluoroquinolin-7-yl)ethyl)-5-(4-methyl-7H-pyrrolo[2,3-d]pyrimidin-7-yl)cyclopent-3-ene-1,2-diol]	0.3 to 0.95 nM	300 to 20000 pM	100%	–	–
Nc1nc2cc(CCC3=C[C@@H](n4ccc5c(N)ncnc54)[C@H](O)[C@@H]3O)cc(F)c2cc1Cl [Compound-24, (1S,2R,5R)-3-(2-(2-amino-3-chloro-5-fluoroquinolin-7-yl)ethyl)-5-(4-amino-7H-pyrrolo[2,3-d]pyrimidin-7-yl)cyclopent-3-ene-1,2-diol]	0.3 to 0.95 nM	300 to 20000 pM	100%	–	–
Nc1nc2cc(CC[C@@]34C[C@@H]3[C@@H](n3ccc5c(N)ncnc53)[C@H](O)[C@@H]4O)cc(F)c2cc1Cl [Compound-48, (1R,2R,3S,4R,5S)-1-(2-(2-Amino-3-chloro-5-fluoroquinolin-7-yl)ethyl)-4-(4-amino-7H-pyrrolo[2,3-d]pyrimidin-7-yl)bicyclo[3.1.0]hexane-2,3-diol]	0.3 to 0.95 nM	300 to 20000 pM	–	100%	63%
